Legend:
Format in all cases: biochemical
PIP4K2B = molecular target: T1, PIP4K2B (Homo sapiens, UniProt P78356); test: Trans-FI P kinase assay PIP4K2B (PIP4KtypeIIB inhibition assay); conditions: compounds listed under IC50 bin headings; 100 uM GTP; read-out: Trans-FI P kinase assays: PIP4K2B IC50
T1 construct: made in house; host or cells: E. coli
T1 sequence (P78356 1-416): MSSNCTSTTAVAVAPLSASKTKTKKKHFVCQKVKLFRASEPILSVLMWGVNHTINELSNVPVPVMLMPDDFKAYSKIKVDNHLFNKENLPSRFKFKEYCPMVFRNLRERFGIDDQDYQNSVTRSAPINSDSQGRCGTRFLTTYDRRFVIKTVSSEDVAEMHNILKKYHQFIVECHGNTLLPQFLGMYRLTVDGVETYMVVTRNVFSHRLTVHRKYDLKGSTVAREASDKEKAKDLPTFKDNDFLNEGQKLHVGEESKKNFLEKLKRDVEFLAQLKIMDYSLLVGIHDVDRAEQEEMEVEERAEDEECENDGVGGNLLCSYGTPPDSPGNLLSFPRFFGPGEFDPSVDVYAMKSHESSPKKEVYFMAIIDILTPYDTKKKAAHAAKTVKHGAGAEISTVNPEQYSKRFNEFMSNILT
Outline: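 Transcreener FI fluorescence read-out of GDP formed by E. coli-expressed GST-PIP4K2B (5 nM) using 100 uM GTP and 80 uM PI5P with DOPE carrier lipid, pH 7.3, 2 h reaction. Compounds (up to 4.8 uM) were preincubated with enzyme 1 h at 27 C; IC50 fitted from residual activity relative to no-inhibitor control.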

PIP4K 2A [1] = molecular target: T2, PIP4K 2A (Homo sapiens, UniProt P48426); test: Kinase Assay PIP4K2 A (PIP4KtypeIIA inhibition assay); parameters: made in house; host or cells: E. coli; conditions: compounds listed under IC50 bin headings
T2 sequence (P48426 1-406): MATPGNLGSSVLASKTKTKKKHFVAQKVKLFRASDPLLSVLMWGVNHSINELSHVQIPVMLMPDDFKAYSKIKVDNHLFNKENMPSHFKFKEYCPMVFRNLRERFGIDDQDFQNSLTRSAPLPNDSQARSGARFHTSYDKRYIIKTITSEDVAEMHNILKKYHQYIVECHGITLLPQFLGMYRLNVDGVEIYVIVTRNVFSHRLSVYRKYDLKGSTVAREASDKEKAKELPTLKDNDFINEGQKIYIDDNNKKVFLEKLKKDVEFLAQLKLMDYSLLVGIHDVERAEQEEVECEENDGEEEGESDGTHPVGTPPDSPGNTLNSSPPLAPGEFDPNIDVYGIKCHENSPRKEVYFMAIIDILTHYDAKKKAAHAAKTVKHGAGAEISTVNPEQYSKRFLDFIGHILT
From the text: GST tagged PIP4KtypeIIA and B enzymes were overexpressed in E. Coli and purified to >80% homogeneity. Phosphatidyl inositol-5-phosphate (PI5P, Cat. #850152, Avanti Polar Lipids Inc.) was used as the lipid substrate and phosphatidyl ethanolamine (DOPE 18:1, Cat. #850725, Avanti Polar Lipids Inc.) was used as the carrier lipid for assays. Ultrapure ATP and GTP was purchased from Bellbrooke Labs. ADP Glo reagents were obtained from Promega. Transcreener FI reagent was obtained from Bellbrooke labs.
Enzyme preparation: GST-tagged PIP4KtypeIIA (5 uL, 1.43 mg/mL) was diluted (1:10) to 50 uL using HNE buffer. From the 1:10 diluted stock, a 6.4 uL aliquot was diluted further to 5 mL using HNE buffer to yield 5× enzyme stock (2.5 nM).
Lipid Preparation: In a 10 mL pyrex glass vial, 1 ug of PI5P and 1 ug of DOPE were suspended in 2.5 mL of HEPES buffer mix and 2.5 mL of H:E buffer. The contents were mixed and sonicated for 3 min to yield a translucent lipid stock.
Compound Preparation: Compounds were stored as 5 mM stocks in neat DMSO as room temperature in glass vials. 5 mM stocks were diluted to 2 mM and then serially diluted (3×) in neat DMSO in 96 well polypropylene plates. From the serially diluted stocks, 3 uL was delivered into 250 uL of 25% DMSO (in water) to generate 5× compound stocks. Typically, the highest compound conc. was 24 uM.
The assay volume was kept at 25 uL. To each well of the reaction plate, 10 uL of lipid stock (1:1 ratio PI5P:DOPE) was delivered. This was followed by the addition of 5 uL of compound in 25% DMSO. Then, to each well, 5 uL of 2.5 nM (5×) typeIIA enzyme was delivered. The contents were mixed well and incubated for 1 h at 27 C. After 1 h, reaction was initiated by adding 5 uL of 50 uM ATP and the contents were mixed well with a multi-channel pipetteman. The final concentration of the reagents are as follows: 50 mM HEPES, pH 7.3, 10 mM MgCl2, 20 mM NaCl, 0.01% v/v triton-X100, 5% DMSO, 10 uM ATP, 80 uM (2 ug) PI5P, 2 ug DOPE, and 0.5 nM PIP4KIIA. Typically, the highest conc. of compounds was 4.8 uM and the lowest conc. was 0.
After 1 hr, the reaction was quenched by adding 25 uL of ADP Glo reagent. The contents were incubated for 1 hr. Afterwards, 50 uL of kinase detection reagent was delivered. The contents were incubated for another hour. The luminescence was read using Molecular Devices Paradigm plate reader. […] The blanks were averaged and subtracted from all other wells. Using a calibration curve, RLU was converted to uM ADP (product). IC50 was calculated by plotting the residual activity (expressed as % No inhibitor control) vs. log [Inh. conc.]

PIP4K 2A [2] = molecular target: T2, PIP4K 2A; test: ADP-glo kinase assay PIP4K 2A; parameters: 4 nM PIP4K2A (full length protein, SignalChem); purchased SignalChem; conditions: compounds listed under IC50 bin headings
Outline: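 Inhibition was calculated versus DMSO controls from ADP-Glo luminescence and fitted to IC50 over a 10-point, threefold series. Compound was first pre-incubated 15 min at room temperature with PIP4K2A (full-length; 4 nM in the enzyme/substrate mix) and PI(5)P diC8 (100 μM in that mix). The reaction then ran for 1 h after adding 60 μM ATP solution, in MOPS pH 7.2/MgCl2/Tween buffer.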

SMILES | IC50 (PIP4K2B) [nM] | IC50 (PIP4K 2A [1]) [nM] | IC50 (PIP4K 2A [2]) [nM]
CC1Oc2cc(N3CCCC3=O)ccc2-c2cnc(Nc3cncc(N4CCOCC4)c3)cc21 (stereo not drawn) [Example 96, 1-(5-methyl-3-((5-morpholinopyridin-3-yl)amino)-5H-chromeno[4,3-c]pyridin-8-yl)pyrrolidin-2-one] | 100 to 1000 | 1 to 10 | 1 to 10
O=C1CCCN1c1ccc2c(c1)OCc1cc(Nc3cnc4c(c3)N(S(=O)(=O)C3CC3)CCO4)ncc1-2 [Example 74, 1-(3-((1-(cyclopropylsulfonyl)-2,3-dihydro-1H-pyrido[2,3-b][1,4]oxazin-7-yl)amino)-5H-chromeno[4,3-c]pyridin-8-yl)pyrrolidin-2-one] | 1 to 10 | ≤ 1 | 1 to 10
CC1Oc2cc(N3CCCC3=O)ccc2-c2cnc(Nc3cncc(NC(=O)NCc4ccccc4)c3)cc21 (stereo not drawn) [Example 103, 1-benzyl-3-(5-((5-methyl-8-(2-oxopyrrolidin-1-yl)-5H-chromeno[4,3-c]pyridin-3-yl)amino)pyridin-3-yl)urea] | 10 to 100 | ≤ 1 | 1 to 10
COCCC(=O)N1CCN(c2cncc(Nc3cc4c(cn3)-c3cc(F)c(N5CCCC5=O)cc3OC4(C)C)c2)CC1 [Example 173, 1-(9-fluoro-3-((5-(4-(3-methoxypropanoyl)piperazin-1-yl)pyridin-3-yl)amino)-5,5-dimethyl-5H-chromeno[4,3-c]pyridin-8-yl)pyrrolidin-2-one] | 10 to 100 | 1 to 10 | 1 to 10
CC1Oc2cc(N3CCCC3=O)ccc2-c2cnc(Nc3cncc(Nc4ccccn4)c3)cc21 (stereo not drawn) [Example 130, 1-(5-methyl-3-((5-(pyridin-2-ylamino)pyridin-3-yl)amino)-5H-chromeno[4,3-c]pyridin-8-yl)pyrrolidin-2-one] | 10 to 100 | 1 to 10 | 1 to 10
CC1Oc2cc(N3CCCC3=O)ccc2-c2cnc(Nc3cnc4c(c3)N(C(=O)C3CC3)CCO4)cc21 (stereo not drawn) [Example 82, 1-(3-((1-(cyclopropanecarbonyl)-2,3-dihydro-1H-pyrido[2,3-b][1,4]oxazin-7-yl)amino)-5-methyl-5H-chromeno[4,3-c]pyridin-8-yl)pyrrolidin-2-one] | 1 to 10 | ≤ 1 | ≤ 1
CC1(C)Oc2cc(N3CCCC3=O)ccc2-c2cnc(Nc3cnc4c(c3)OCCO4)cc21 [Example 164, 1-(3-((2,3-dihydro-[1,4]dioxino[2,3-b]pyridin-7-yl)amino)-5,5-dimethyl-5H-chromeno[4,3-c]pyridin-8-yl)pyrrolidin-2-one] | 10 to 100 | ≤ 1 | 1 to 10
CC(C)S(=O)(=O)N1CCOc2ncc(Nc3cc4c(cn3)-c3ccc(N5CCCC5=O)cc3OC4)cc21 [Example 79, 1-(3-((1-(isopropylsulfonyl)-2,3-dihydro-1H-pyrido[2,3-b][1,4]oxazin-7-yl)amino)-5H-chromeno[4,3-c]pyridin-8-yl)pyrrolidin-2-one] | 10 to 100 | ≤ 1 | 1 to 10
CC1Oc2cc(N3CCCC3=O)ccc2-c2cnc(Nc3cncc(NC(=O)c4cccc(N)c4)c3)cc21 (stereo not drawn) [Example 106, 3-amino-N-(5-((5-methyl-8-(2-oxopyrrolidin-1-yl)-5H-chromeno[4,3-c]pyridin-3-yl)amino)pyridin-3-yl)benzamide] | 10 to 100 | ≤ 1 | 1 to 10

Now from value to compound:

IC50 (PIP4K2B) [nM] | IC50 (PIP4K 2A [1]) [nM] | IC50 (PIP4K 2A [2]) [nM] | SMILES
10 to 100 | 1 to 10 | 1 to 10 | CN(C)C(=O)c1ccc2c(c1)OC(C1CC1)c1cc(Nc3cccnc3)ncc1-2 (stereo not drawn) [Example 34, 5-cyclopropyl-N,N-dimethyl-3-(pyridin-3-ylamino)-5H-chromeno[4,3-c]pyridine-8-carboxamide]
> 1000 | 100 to 1000 | 100 to 1000 | COc1ncc(Nc2cc3c(cn2)-c2ccc(N4CCCC4=O)cc2OC3C)cc1N(C)C(C)=O (stereo not drawn) [Example 89, N-(2-methoxy-5-((5-methyl-8-(2-oxopyrrolidin-1-yl)-5H-chromeno[4,3-c]pyridin-3-yl)amino)pyridin-3-yl)-N-methylacetamide]
1 to 10 | ≤ 1 | ≤ 1 | CC1Oc2cc(C(=O)N(C)C)ccc2-c2cnc(Nc3cnc4c(c3)N(S(C)(=O)=O)CCO4)cc21 (stereo not drawn) [Example 71, N,N,5-trimethyl-3-((1-(methylsulfonyl)-2,3-dihydro-1H-pyrido[2,3-b][1,4]oxazin-7-yl)amino)-5H-chromeno[4,3-c]pyridine-8-carboxamide]
> 1000 | 10 to 100 | 10 to 100 | CC1c2cc(Nc3cccnc3)ncc2-c2ccc(N3CCCC3=O)cc2N1C (stereo not drawn) [Example 43, 1-(5,6-dimethyl-3-(pyridin-3-ylamino)-5,6-dihydrobenzo[c][2,6]naphthyridin-8-yl)pyrrolidin-2-one]
100 to 1000 | ≤ 1 | 1 to 10 | Cc1cncc(Nc2cc3c(cn2)-c2ccc(N4CCCC4=O)cc2OC3C)c1 (stereo not drawn) [Example 97, 1-(5-methyl-3-((5-methylpyridin-3-yl)amino)-5H-chromeno[4,3-c]pyridin-8-yl)pyrrolidin-2-one]
100 to 1000 | 1 to 10 | 10 to 100 | CC1Oc2cc(N3CCCC3=O)ccc2-c2cnc(Nc3cnc4cccnc4c3)cc21 (stereo not drawn) [Example 64, 1-(3-((1,5-naphthyridin-3-yl)amino)-5-methyl-5H-chromeno[4,3-c]pyridin-8-yl)pyrrolidin-2-one]
1 to 10 | ≤ 1 | 1 to 10 | CC1Oc2cc(C(=O)N(C)C)ccc2-c2cnc(Nc3cnc4c(c3)N(S(=O)(=O)C3CC3)CCO4)cc21 (stereo not drawn) [Example 72, 3-((1-(cyclopropylsulfonyl)-2,3-dihydro-1H-pyrido[2,3-b][1,4]oxazin-7-yl)amino)-N,N,5-trimethyl-5H-chromeno[4,3-c]pyridine-8-carboxamide]
100 to 1000 | 1 to 10 | 10 to 100 | CC1c2cc(Nc3cccnc3)ncc2-c2ccc(C(=O)N(C)C)cc2N1C (stereo not drawn) [Example 37, N,N,5,6-tetramethyl-3-(pyridin-3-ylamino)-5,6-dihydrobenzo[c][2,6]naphthyridine-8-carboxamide]

From patent US11584763B2, “Chromenopyridine derivatives as phosphatidylinositol phosphate kinase inhibitors” (HIBERCELL, INC., priority 2017, dated 2023)
